Legend:
[1] = target: T1, KRAS G12D/SOS1 (Homo sapiens, UniProt Q07889); experiment: biochemical
T1 sequence (Q07889 1-1333): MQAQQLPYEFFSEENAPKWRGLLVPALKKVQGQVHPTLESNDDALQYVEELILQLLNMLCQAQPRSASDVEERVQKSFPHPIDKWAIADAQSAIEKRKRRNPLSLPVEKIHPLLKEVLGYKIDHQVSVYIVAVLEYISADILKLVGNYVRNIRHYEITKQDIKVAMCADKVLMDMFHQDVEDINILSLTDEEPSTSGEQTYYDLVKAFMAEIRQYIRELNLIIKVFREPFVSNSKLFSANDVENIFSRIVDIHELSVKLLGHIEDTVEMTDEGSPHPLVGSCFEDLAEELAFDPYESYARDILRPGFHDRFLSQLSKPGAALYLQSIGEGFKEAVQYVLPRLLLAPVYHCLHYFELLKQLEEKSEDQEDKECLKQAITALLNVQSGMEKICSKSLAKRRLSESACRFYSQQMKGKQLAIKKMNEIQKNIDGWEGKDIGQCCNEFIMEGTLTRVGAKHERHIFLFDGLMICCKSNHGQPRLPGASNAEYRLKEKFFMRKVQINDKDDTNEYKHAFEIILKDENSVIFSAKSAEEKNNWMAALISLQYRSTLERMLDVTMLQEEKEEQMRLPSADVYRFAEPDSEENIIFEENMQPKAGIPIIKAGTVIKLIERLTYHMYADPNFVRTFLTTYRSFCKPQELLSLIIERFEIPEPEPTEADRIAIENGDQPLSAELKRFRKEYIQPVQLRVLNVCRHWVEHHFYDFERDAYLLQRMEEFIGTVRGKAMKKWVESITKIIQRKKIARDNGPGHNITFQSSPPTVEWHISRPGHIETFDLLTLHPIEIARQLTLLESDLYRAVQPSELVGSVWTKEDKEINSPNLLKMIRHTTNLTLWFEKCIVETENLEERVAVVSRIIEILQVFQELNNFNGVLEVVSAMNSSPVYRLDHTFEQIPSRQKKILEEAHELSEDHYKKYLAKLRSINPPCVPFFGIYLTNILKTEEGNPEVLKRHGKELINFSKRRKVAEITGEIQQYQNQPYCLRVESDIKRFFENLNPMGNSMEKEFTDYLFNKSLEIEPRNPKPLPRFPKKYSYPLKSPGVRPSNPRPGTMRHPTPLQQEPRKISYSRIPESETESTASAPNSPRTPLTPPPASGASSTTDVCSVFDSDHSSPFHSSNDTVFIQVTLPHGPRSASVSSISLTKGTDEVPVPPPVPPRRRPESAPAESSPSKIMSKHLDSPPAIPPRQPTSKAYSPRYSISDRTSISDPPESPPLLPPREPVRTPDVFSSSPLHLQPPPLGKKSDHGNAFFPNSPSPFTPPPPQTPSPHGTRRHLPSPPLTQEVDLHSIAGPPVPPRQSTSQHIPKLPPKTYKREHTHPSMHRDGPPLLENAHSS

[2] = target: T2, KRAS-WT/SOS1 (Homo sapiens, UniProt Q07889); experiment: biochemical
T2 sequence (Q07889 1-1333): T1 sequence (Q07889 1-1333)

Row | SMILES | IC50 [1] | IC50 [2]
1 | C[C@@H](NC(=O)c1cn(C2(C)CC2)c(=O)c2c[nH]nc12)c1cccc2c1CCC2(F)F [Example 4, (R)-N-(1-(1,1-difluoro-2,3-dihydro-1H-inden-4-yl)ethyl)-5-(1-methylcyclopropyl)-4-oxo-4,5-dihydro-2H-pyrazolo[4,3-c]pyridine-7-carboxamide] | < 0.1 µM | < 0.1 µM
2 | C[C@@H](NC(=O)c1cn(C2(C)CC2)c(=O)c2c[nH]nc12)c1cccc(C(F)(F)CO)c1 [Example 5, (R)-N-(1-(3-(1,1-difluoro-2-hydroxyethyl)phenyl)ethyl)-5-(1-methylcyclopropyl)-4-oxo-4,5-dihydro-2H-pyrazolo[4,3-c]pyridine-7-carboxamide] | < 0.1 µM | < 0.1 µM
3 | Cc1c([C@@H](C)NC(=O)c2cn(C3(C)CC3)c(=O)c3cn[nH]c23)cccc1C(F)(F)F [Example 6, (R)-N-(1-(2-methyl-3-(trifluoromethyl)phenyl)ethyl)-5-(1-methylcyclopropyl)-4-oxo-4,5-dihydro-1H-pyrazolo[4,3-c]pyridine-7-carboxamide] | 0.1 to 0.5 µM | < 0.1 µM
4 | C[C@@H](NC(=O)c1cn(C2(C)CC2)c(=O)c2cn[nH]c12)c1cccc(C(C)(F)F)c1F [Example 7, (R)-N-(1-(3-(1,1-difluoroethyl)-2-fluorophenyl)ethyl)-5-(1-methylcyclopropyl)-4-oxo-4,5-dihydro-1H-pyrazolo[4,3-c]pyridine-7-carboxamide] | 0.1 to 0.5 µM | < 0.1 µM
5 | CNCc1ccccc1-c1ccc([C@@H](C)NC(=O)c2cn(C3(C)CC3)c(=O)c3cn[nH]c23)s1 [Example 9, (R)-N-(1-(5-(2-((methylamino)methyl)phenyl)thiophen-2-yl)ethyl)-5-(1-methylcyclopropyl)-4-oxo-4,5-dihydro-1H-pyrazolo[4,3-c]pyridine-7-carboxamide] | < 0.1 µM | < 0.1 µM
6 | CC(=O)N1CCC(n2cc(C(=O)N[C@H](C)c3cccc4c3CCC4(F)F)c3n[nH]cc3c2=O)CC1 [Example 10, (R)-5-(1-acetylpiperidin-4-yl)-N-(1-(1,1-difluoro-2,3-dihydro-1H-inden-4-yl)ethyl)-4-oxo-4,5-dihydro-2H-pyrazolo[4,3-c]pyridine-7-carboxamide] | < 0.1 µM | < 0.1 µM
7 | C[C@@H](NC(=O)c1cn(C2CC(F)(F)C2)c(=O)c2cn[nH]c12)c1cccc2c1CCC2(F)F [Example 13, (R)—N-(1-(1,1-difluoro-2,3-dihydro-1H-inden-4-yl)ethyl)-5-(3,3-difluorocyclobutyl)-4-oxo-4,5-dihydro-1H-pyrazolo[4,3-c]pyridine-7-carboxamide] | < 0.1 µM | < 0.1 µM
8 | C[C@@H](NC(=O)c1cn(C2CC(F)(F)C2)c(=O)c2cn[nH]c12)c1cccc(C(F)(F)F)c1 [Example 14, (R)-5-(3,3-difluorocyclobutyl)-4-oxo-N-(1-(3-(trifluoromethyl)phenyl)ethyl)-4,5-dihydro-1H-pyrazolo[4,3-c]pyridine-7-carboxamide] | 0.1 to 0.5 µM | 0.1 to 0.5 µM
9 | CNCc1ccccc1-c1csc([C@@H](C)NC(=O)c2cn(C3CC(F)(F)C3)c(=O)c3cn[nH]c23)c1 [Example 15, 5-(3,3-difluorocyclobutyl)-N-[(1R)-1-(4-{2-[(methylamino)methyl]phenyl}thiophen-2-yl)ethyl]-4-oxo-1H,4H,5H-pyrazolo[4,3-c]pyridine-7-carboxamide] | < 0.1 µM | < 0.1 µM
10 | COc1c(N2CCOCC2)cc(C(=O)N[C@H](C)c2cccc3c2CCC3(F)F)c2n[nH]cc12 [Example 18, N-[(1R)-1-(1,1-difluoro-2,3-dihydro-1H-inden-4-yl)ethyl]-4-methoxy-5-(morpholin-4-yl)-2H-indazole-7-carboxamide] | < 0.1 µM | < 0.1 µM
11 | COc1c(CN(C)C)cc(C(=O)N[C@H](C)c2cccc3c2CCC3(F)F)c2n[nH]cc12 [Example 19, N-[(1R)-1-(1,1-difluoro-2,3-dihydro-1H-inden-4-yl)ethyl]-5-[(dimethylamino)methyl]-4-methoxy-2H-indazole-7-carboxamide] | 0.1 to 0.5 µM | 0.1 to 0.5 µM
12 | COc1c(CN(C)C)cc(C(=O)N[C@H](C)c2cccc(C(F)(F)CO)c2)c2n[nH]cc12 [Example 20, N-[(1R)-1-[3-(1,1-difluoro-2-hydroxyethyl)phenyl]ethyl]-5-[(dimethylamino)methyl]-4-methoxy-2H-indazole-7-carboxamide] | 0.1 to 0.5 µM | 0.1 to 0.5 µM
13 | Cc1c[nH]c2c(C(=O)N[C@H](C)c3cccc4c3CCC4(F)F)cn(C3(C)CC3)c(=O)c12 [Example 21, (R)—N-(1-(1,1-difluoro-2,3-dihydro-1H-inden-4-yl)ethyl)-3-methyl-5-(1-methylcyclopropyl)-4-oxo-4,5-dihydro-1H-pyrrolo[3,2-c]pyridine-7-carboxamide] | 0.1 to 0.5 µM | < 0.1 µM
14 | COc1c(-c2cnc[nH]2)cc(C(=O)N[C@H](C)c2cccc3c2CCC3(F)F)c2n[nH]cc12 [Example 22, N-[(1R)-1-(1,1-difluoro-2,3-dihydro-1H-inden-4-yl)ethyl]-5-(1H-imidazol-5-yl)-4-methoxy-2H-indazole-7-carboxamide] | 0.1 to 0.5 µM | 0.1 to 0.5 µM
15 | COc1c(-c2cnc[nH]2)cc(C(=O)N[C@H](C)c2cccc(C(F)(F)CO)c2)c2n[nH]cc12 [Example 23, N-[(1R)-1-[3-(1,1-difluoro-2-hydroxyethyl)phenyl]ethyl]-5-(1H-imidazol-5-yl)-4-methoxy-2H-indazole-7-carboxamide] | 0.1 to 0.5 µM | 0.1 to 0.5 µM
16 | COc1c(C(C)N)cc(C(=O)N[C@H](C)c2cccc3c2CCC3(F)F)c2n[nH]cc12 (stereo partly drawn) [Example 24, 5-(1-aminoethyl)-N—((R)-1-(1,1-difluoro-2,3-dihydro-1H-inden-4-yl)ethyl)-4-methoxy-2H-indazole-7-carboxamide] | 0.1 to 0.5 µM | 0.1 to 0.5 µM
17 | COc1c(O[C@H]2CCOC2)cc(C(=O)N[C@H](C)c2cccc(C(F)(F)F)c2)c2n[nH]cc12 [Example 27, 4-methoxy-5-(((S)-tetrahydrofuran-3-yl)oxy)-N—((R)-1-(3-(trifluoromethyl)phenyl)ethyl)-2H-indazole-7-carboxamide] | 0.1 to 0.5 µM | 0.1 to 0.5 µM
18 | COc1c(O[C@H]2CCOC2)cc(C(=O)N[C@H](C)c2cc(N)cc(C(F)(F)F)c2)c2n[nH]cc12 [Example 28, N-((R)-1-(3-amino-5-(trifluoromethyl)phenyl)ethyl)-4-methoxy-5-(((S)-tetrahydrofuran-3-yl)oxy)-2H-indazole-7-carboxamide] | 0.1 to 0.5 µM | 0.1 to 0.5 µM
19 | COc1c(O[C@H]2CCOC2)cc(C(=O)N[C@H](C)c2cccc3c2CCC3(F)F)c2n[nH]cc12 [Example 29, N-((R)-1-(1,1-difluoro-2,3-dihydro-1H-inden-4-yl)ethyl)-4-methoxy-5-(((S)-tetrahydrofuran-3-yl)oxy)-2H-indazole-7-carboxamide] | 0.1 to 0.5 µM | < 0.1 µM
20 | COc1c(O[C@H]2CCOC2)cc(C(=O)N[C@H](C)c2cccc(C(F)(F)CO)c2)c2n[nH]cc12 [Example 30, N-((R)-1-(3-(1,1-difluoro-2-hydroxyethyl)phenyl)ethyl)-4-methoxy-5-(((S)-tetrahydrofuran-3-yl)oxy)-2H-indazole-7-carboxamide] | 0.1 to 0.5 µM | 0.1 to 0.5 µM
21 | COc1c(N2CCN(C)CC2)cc(C(=O)N[C@H](C)c2cccc(C(F)(F)CO)c2)c2[nH]ncc12 [Example 32, N-[(1R)-1-[3-(1,1-difluoro-2-hydroxyethyl)phenyl]ethyl]-4-methoxy-5-(4-methylpiperazin-1-yl)-1H-indazole-7-carboxamide] | < 0.1 µM | < 0.1 µM
22 | COc1c(N2CCNCC2)cc(C(=O)N[C@H](C)c2cccc(C(F)(F)CO)c2)c2[nH]ncc12 [Example 33] | < 0.1 µM | < 0.1 µM
23 | COc1c(C2CCN(C)CC2)cc(C(=O)N[C@H](C)c2cccc(C(F)(F)CO)c2)c2[nH]ncc12 [Example 34, N-[(1R)-1-[3-(1,1-difluoro-2-hydroxyethyl)phenyl]ethyl]-4-methoxy-5-(1-methylpiperidin-4-yl)-1H-indazole-7-carboxamide] | < 0.1 µM | < 0.1 µM

— patent US20240109887A1 (Viva Star Biosciences (Suzhou) Co., Ltd., priority 2021, published 2024)
